These results are taken from ChEMBL document CHEMBL3124786, “The discovery of reverse tricyclic pyridone JAK2 inhibitors. Part 2: lead optimization” (Bioorg Med Chem Lett, 2014).

Data set [1] is described as follows: Plasma clearance in rat. In kind it is ADME, organism-based.
Data set [2] concerns the target T1, Tyrosine-protein kinase JAK2 (Homo sapiens, UniProt O60674). Briefly: Inhibition of recombinant Jak2 (unknown origin) using biotinylated synthetic peptide substrate by homogeneous time resolved fluorescence assay.
In data set [3] the target is T1, Tyrosine-protein kinase JAK2. Kind of data set: Inhibition of Jak2 (unknown origin) assessed as inhibition of STAT5 phosphorylation by cell-based assay.
Another data set is filed under the species Rattus norvegicus. Kind of data set: Unbound clearance in rat. To be noted: in vivo. In kind it is ADME, organism-based.
The nature of data set [4]: Plasma protein binding in rat. In kind it is ADME, cell-free. To be noted: read-out: PPB (converted).
The next data set concerns Mus musculus. Kind of data set: Inhibition of Jak2 (unknown origin) in po dosed […] mouse assessed as inhibition of STAT5 phosphorylation measured after 1 to 8 hrs of dosing by PK/PD assay. In kind it is functional, organism-based.
The nature of data set [5]: Half life in rat. In kind it is ADME, organism-based. To be noted: in vivo.
Data set [6] is described as follows: Volume of distribution in rat. In kind it is ADME, organism-based. To be noted: in vivo.
[7] abbreviates: Mus musculus, C56bl/6, read-out: IC50.

T1 sequence (O60674 whole entry): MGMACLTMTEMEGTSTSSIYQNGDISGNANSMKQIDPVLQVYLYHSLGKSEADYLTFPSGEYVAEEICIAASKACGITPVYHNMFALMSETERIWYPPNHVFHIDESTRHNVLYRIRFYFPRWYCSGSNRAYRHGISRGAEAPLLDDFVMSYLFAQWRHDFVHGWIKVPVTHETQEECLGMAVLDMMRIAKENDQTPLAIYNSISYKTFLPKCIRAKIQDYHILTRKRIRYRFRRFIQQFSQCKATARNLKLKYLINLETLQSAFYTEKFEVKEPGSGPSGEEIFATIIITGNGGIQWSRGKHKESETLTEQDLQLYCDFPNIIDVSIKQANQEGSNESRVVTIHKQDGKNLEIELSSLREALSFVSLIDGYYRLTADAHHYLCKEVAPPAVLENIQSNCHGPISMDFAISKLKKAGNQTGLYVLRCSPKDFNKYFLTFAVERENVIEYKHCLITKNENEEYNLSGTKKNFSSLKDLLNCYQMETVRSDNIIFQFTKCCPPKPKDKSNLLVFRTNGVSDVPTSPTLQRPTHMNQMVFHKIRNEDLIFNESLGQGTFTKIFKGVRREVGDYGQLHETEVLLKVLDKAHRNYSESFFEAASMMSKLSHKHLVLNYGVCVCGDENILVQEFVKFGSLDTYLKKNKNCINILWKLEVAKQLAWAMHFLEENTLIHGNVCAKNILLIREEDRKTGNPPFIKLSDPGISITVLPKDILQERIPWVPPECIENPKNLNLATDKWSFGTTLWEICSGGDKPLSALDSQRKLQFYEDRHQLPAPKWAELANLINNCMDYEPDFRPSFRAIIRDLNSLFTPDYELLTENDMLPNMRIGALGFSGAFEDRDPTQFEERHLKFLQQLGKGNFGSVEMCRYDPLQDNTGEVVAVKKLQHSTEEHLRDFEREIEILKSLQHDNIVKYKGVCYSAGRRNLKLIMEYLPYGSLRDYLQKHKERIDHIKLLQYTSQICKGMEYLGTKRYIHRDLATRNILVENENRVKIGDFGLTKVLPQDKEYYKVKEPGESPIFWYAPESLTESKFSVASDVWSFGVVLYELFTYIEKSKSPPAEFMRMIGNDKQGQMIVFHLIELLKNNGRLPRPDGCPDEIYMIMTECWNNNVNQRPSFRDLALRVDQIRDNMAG

`CC(C)[C@@H](Nc1nc2cc[nH]c(=O)c2c2cnccc12)C(F)(F)F`: in data set [1], the clearance – broadly, the volume of plasma or blood freed of the substance per unit of time – amounted to 68 mL/min/kg.

Regarding `O=c1[nH]ccc2c(NC3CC3)nc3ccc(F)cc3c12`, the IC50 (commonly the concentration that gives 50% inhibition) in data set [2] worked out at 200 nM.

For `O=c1[nH]ccc2nc(NC3CC3)c3ccc(F)cc3c12`, in data set [2], the IC50 came to 100 nM.

For `O=c1[nH]ccc2c(Nc3c(F)cc(F)cc3F)nc3ccncc3c12`, the IC50 in data set [2] was 7 nM; in data set [3], 90 nM.

Turning to `O=c1[nH]ccc2c(Nc3c(Cl)cc(F)cc3Cl)nc3ccncc3c12`, the IC50 in data set [2] stood at 0.8 nM; in data set [3], 14 nM.

Consider `O=c1[nH]ccc2c(Nc3c(Cl)cncc3Cl)nc3ccncc3c12`, for which the IC50 in data set [2] worked out at 2 nM; in data set [3], 24 nM.

For the molecule `O=c1[nH]ccc2c(Nc3c(Cl)cc(OC(F)(F)F)cc3Cl)nc3ccncc3c12`, the figures for the IC50 in data set [2] and in data set [3] were 3 nM and 140 nM, respectively.

In the case of `O=c1[nH]ccc2c(Nc3c(Cl)cc(C(F)(F)F)cc3Cl)nc3ccncc3c12`, the IC50 in data set [2] came to 1 nM; in data set [3], 49 nM.

Consider `O=c1[nH]ccc2c(Nc3c(F)cccc3C(F)(F)F)nc3ccncc3c12`, for which the IC50 in data set [2] was 9 nM; in data set [3], 90 nM.

With `CC(O)c1cc(Cl)c(Nc2nc3ccncc3c3c(=O)[nH]ccc23)c(Cl)c1` (stereo not drawn), the values for the IC50 (in data set [2]; in data set [3]; in the data set with Mus musculus (setting [7])) were 0.6 nM, 12 nM and 400 nM, respectively. Moreover, the CL in the data set filed under Rattus norvegicus turned out to be 1125 mL/min/kg. Further, the fraction unbound in data set [4] is 0.048. The same molecule came in with a clearance in data set [1] of 54 mL/min/kg.

As to `CC(C)(O)c1cc(Cl)c(Nc2nc3ccncc3c3c(=O)[nH]ccc23)c(Cl)c1`, the results for the IC50 (in data set [2]; in data set [3]; in the data set with Mus musculus (setting [7])) were 0.5 nM, 18 nM and 1200 nM, respectively. The molecule further returned a CL in the data set listed under Rattus norvegicus of 1115 mL/min/kg. For the same molecule, in data set [4], the fraction unbound was 0.026. Further, in data set [1], the clearance stood at 29 mL/min/kg.

Regarding `O=c1[nH]ccc2c(Nc3c(Cl)cc(-c4ccn[nH]4)cc3Cl)nc3ccncc3c12`, the IC50 in data set [2] is 1 nM; in data set [3] it was 37 nM; in the data set with Mus musculus it was “Not Active”. In the data set filed under Rattus norvegicus, this molecule registered a CL of 10000 mL/min/kg. Also, the fraction unbound in data set [4] was 0.001. The clearance in data set [1] was determined as 10 mL/min/kg.

Turning to `O=c1[nH]ccc2c(Nc3c(Cl)cc(C(O)C(F)F)cc3Cl)nc3ccncc3c12` (stereo not drawn), the IC50 came out at 0.2 nM in data set [2], 26 nM in data set [3] and 1300 nM in the data set with Mus musculus (setting [7]). This molecule also came in with a CL in the data set listed under Rattus norvegicus of 571 mL/min/kg. In addition, the fraction unbound in data set [4] was 0.028. The same molecule returned a clearance in data set [1] of 16 mL/min/kg.

As to `NS(=O)(=O)c1cc(Cl)c(Nc2nc3ccncc3c3c(=O)[nH]ccc23)c(Cl)c1`, the IC50 in data set [2] is 0.15 nM; in data set [3] it was 113 nM; in the data set on Mus musculus it was “Not Active”. This molecule also gave a clearance in data set [1] of 50 mL/min/kg.

`CC(C)[C@H](Nc1nc2ccncc2c2c(=O)[nH]ccc12)C(F)(F)F`: the IC50 in data set [2] was 10 nM; in data set [3], 170 nM.

Take `O=c1[nH]ccc2c(Nc3c(F)cc(F)cc3Cl)nc3ccncc3c12`: the IC50 in data set [2] was determined as 0.9 nM; in data set [3], 15 nM; with Mus musculus (setting [7]), 2300 nM. Besides, the half-life (as a rule, the time needed for the level to fall by half in the phase considered) in data set [5] is 48 min. The molecule further showed a CL in the data set filed under Rattus norvegicus of 875 mL/min/kg. In data set [4], the fraction unbound is 0.048. Besides, the Vd (usually a proportionality between amount in the body and measured concentration, not a real space) in data set [6] was 2.6 L/kg. In addition, in data set [1], the clearance was 41 mL/min/kg.
